According to publication PMC5733478, “A Non-imaging High Throughput Approach to Chemical Library Screening at the Unmodified Adenosine-A3 Receptor in Living Cells” (Frontiers in Pharmacology, 2017):
Where a name gives a salt, the structure may show the parent alone.

The compounds below were run against T1, human A3AR (Homo sapiens, UniProt P0DMS8) (assay: LOPAC library primary screen: single concentration (10 μM) inhibition of 25 nM CA200645 binding, PHERAstar FS). Conditions: not given.
T1 construct: expressed in transfected cells
T1 sequence (P0DMS8 1-318): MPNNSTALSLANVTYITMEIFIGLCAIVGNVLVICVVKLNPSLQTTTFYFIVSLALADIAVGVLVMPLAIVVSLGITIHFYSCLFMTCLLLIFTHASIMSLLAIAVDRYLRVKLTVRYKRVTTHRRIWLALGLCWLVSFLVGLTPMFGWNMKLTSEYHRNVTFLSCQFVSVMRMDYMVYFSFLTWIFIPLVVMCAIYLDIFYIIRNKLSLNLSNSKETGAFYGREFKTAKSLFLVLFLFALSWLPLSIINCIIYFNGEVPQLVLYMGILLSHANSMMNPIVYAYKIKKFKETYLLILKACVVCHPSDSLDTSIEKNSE

| Structure (SMILES) | % 25 nM CA200645 binding |
| --- | --- |
| CCCCCCCCCCCCCCCC(=O)OC(CC(=O)O)C[N+](C)(C)C.[Cl-] (racemic) [Palmitoyl-DL-Carnitine chloride] | 82.9 ± 21.8% |
| Cc1ccc(Cl)c(Nc2ccccc2C(=O)O)c1Cl [Meclofenamic acid sodium] | 93.6 ± 9.6% |
| C[C@]12CC[C@@H]3c4ccc(O)cc4CC[C@H]3[C@@H]1CC[C@@H]2O [beta-Estradiol] | 87.8 ± 13.4% |
| CC[C@H]1CN2CCc3cc(OC)c(OC)cc3[C@@H]2C[C@@H]1C[C@H]1NCCc2cc(OC)c(OC)cc21 [Emetine dihydrochloride hydrate] | 102.7 ± 9.1% |
| CCCCN(CC)c1nc(C)nc2c1c(C)cn2-c1c(C)cc(C)cc1C.Cl [CP-154526 hydrochloride] | 77.3 ± 23.1% |
| COc1ccc2c(c1O)-c1cccc3c1[C@@H](C2)N(C)CC3.Cl [R(-)-Apocodeine hydrochloride] | 70.5 ± 34.0% |
| CCCCS(=N)(=O)CC[C@H](N)C(=O)O (stereo partly drawn) [L-Buthionine-sulfoximine] | 98.1 ± 5.3% |
| CN(C)C(N)=NCCC[C@H](N)C(=O)O.Cl [N^G,N^G-Dimethylarginine hydrochloride] | 101.2 ± 10.7% |
| CC(=O)[C@H]1CC[C@H]2[C@@H]3CC[C@H]4C[C@H](O)CC[C@]4(C)[C@H]3CC[C@]12C [5alpha-Pregnan-3alpha-ol-20-one] | 85.2 ± 19.4% |
| NCC(O)(CS(=O)(=O)O)c1ccc(Cl)cc1 (stereo not drawn) [2-Hydroxysaclofen] | 92.7 ± 0.2% |
| Oc1ccc(Cn2cc[nH]c2=S)cc1 [1-(4-Hydroxybenzyl)imidazole-2-thiol] | 87.3 ± 21.6% |
| CN(C)CCC(c1ccc(Br)cc1)c1ccccn1.O=C(O)/C=C\C(=O)O (racemic) [(±)-Brompheniramine maleate] | 101.5 ± 4.3% |
| O=C(O)C1=CC(=C(c2ccc(O)c(C(=O)O)c2)c2ccc(O)c(C(=O)O)c2)C=CC1=O [Aurintricarboxylic acid] | 93.7 ± 12.0% |
| COc1cc(CNC(=O)CCCCCCC(C)C)ccc1O [Dihydrocapsaicin] | 86.7 ± 9.6% |
| CC(C)NCC(O)COc1ccc(CCOCC2CC2)cc1 (stereo not drawn) [Betaxolol hydrochloride] | 98.4 ± 4.9% |
| C[C@@H]1O[C@@H](O[C@H]2C[C@@H](O)[C@]3(CO)[C@H]4[C@H](O)C[C@]5(C)[C@@H](C6=CC(=O)OC6)CC[C@]5(O)[C@@H]4CC[C@]3(O)C2)[C@H](O)[C@H](O)[C@H]1O [Ouabain] | 102.0 ± 3.5% |
| O=C(/C=C/c1ccc(O)c(O)c1)OCCc1ccccc1 [Caffeic acid phenethyl ester] | 79.3 ± 10.7% |
| O=C(O)CCc1ccc(NCc2cccc(Oc3ccccc3)c2)cc1 [GW9508] | 94.4 ± 0.8% |
| Oc1ncnc2[nH]ncc12 [Allopurinol] | 99.8 ± 7.2% |
| Cn1ccc2cc3c(cc21)CCN3C(=O)Nc1cccnc1 [SB 206553 hydrochloride] | 60.7 ± 9.3% |
| N[C@H]1CON=C1O [L-Cycloserine] | 98.0 ± 1.4% |
| CO/N=C(\C(=O)N[C@@H]1C(=O)N2C(C(=O)O)=C(CSc3nc(=O)c(=O)[nH]n3C)CS[C@H]12)c1csc(N)n1 [Ceftriaxone sodium] | 100.5 ± 11.9% |
| N.N.O=C([O-])C1(C(=O)[O-])CCC1.[Pt+2] [Carboplatin] | 97.7 ± 5.9% |

Same assay, conditions: 10 μM compound, 25 nM CA200645, A3AR CHO cells

| Structure (SMILES) | hit in LOPAC primary screen (inhibited the binding of CA200645 by >40%) |
| --- | --- |
| Cn1c(=O)c2nc(C3CCCC3)[nH]c2n(C)c1=O [CPT, reference compound] | not identified as hits |

Same assay, conditions: % of control wells (1% DMSO and 25 nM CA200645); compounds at 10 µM; whole live cells expressing the A3AR; mean ± SD, three experiments in duplicate

| Structure (SMILES) | % 25 nM CA200645 binding |
| --- | --- |
| COc1ccc(C2CNC(=O)C2)cc1OC1CCCC1 (stereo not drawn) [Rolipram] | 98.7 ± 10.9% |
| N[C@@H](Cc1c[nH]c2ccccc12)C(=O)O [L-Tryptophan] | 100.0 ± 3.7% |

Same assay, conditions: compounds tested at 10 µM; % of control wells (1% DMSO and 25 nM CA200645); whole live cells expressing the A3AR; mean ± SD, three experiments in duplicate

| Structure (SMILES) | % 25 nM CA200645 binding |
| --- | --- |
| CNS(=O)(=O)CCc1ccc2[nH]cc(C3CCN(C)CC3)c2c1 [Naratriptan hydrochloride] | 102.9 ± 17.6% |
